Experimental data from patent US9278981B2, “Compounds and compositions for inhibiting the activity of ABL1, ABL2 and BCR-ABL1” (Novartis AG, priority 2012, dated 2016).

Legend:
ABL1 (64-515) [1] = target: T1, ABL1 (64-515) (Homo sapiens (Human), UniProt P00519); assay: Radio ABL1 (64-515) assay (radiometric filter-binding); type: biochemical
ABL1 (64-515) [2] = target: T1, ABL1 (64-515); assay: Caliper ABL1 (64-515) assay (microfluidic mobility shift); type: biochemical

T1 sequence (P00519 64-515): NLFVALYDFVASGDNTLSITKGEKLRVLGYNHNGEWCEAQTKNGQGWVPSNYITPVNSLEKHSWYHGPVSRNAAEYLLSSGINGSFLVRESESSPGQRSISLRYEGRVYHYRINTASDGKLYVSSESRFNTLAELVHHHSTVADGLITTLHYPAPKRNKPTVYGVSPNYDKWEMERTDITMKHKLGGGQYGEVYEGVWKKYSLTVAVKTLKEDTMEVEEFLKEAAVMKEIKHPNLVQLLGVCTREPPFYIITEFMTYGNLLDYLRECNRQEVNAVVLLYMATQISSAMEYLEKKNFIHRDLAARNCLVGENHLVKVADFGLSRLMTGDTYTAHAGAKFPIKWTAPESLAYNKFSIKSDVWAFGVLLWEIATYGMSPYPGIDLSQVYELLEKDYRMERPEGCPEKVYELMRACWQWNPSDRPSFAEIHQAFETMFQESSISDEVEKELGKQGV

| IC50 (ABL1 (64-515) [1]) [nM] | IC50 (ABL1 (64-515) [2]) [nM] | Compound |
| --- | --- | --- |
| 3 | 1.2 | O=C(Nc1ccc(OC(F)(F)F)c(F)c1)c1cnc(N2CC[C@@H](O)C2)c(-c2cncc(F)c2)c1 [Example 199, (R)-5′-Fluoro-N-(3-fluoro-4-(trifluoromethoxy)phenyl)-2-(3-hydroxypyrrolidin-1-yl)-[3,3′-bipyridine]-5-carboxamide] |
| 0.2 | 10 | N[C@]1(C(F)(F)F)CCN(c2ncc(C(=O)Nc3ccc(OC(F)(F)F)cc3)cc2-c2cncnc2)C1 [Example 223, (R)-6-(3-Amino-3-(trifluoromethyl)pyrrolidin-1-yl)-5-(pyrimidin-5-yl)-N-(4-(trifluoromethoxy)phenyl)nicotinamide] |
| 3 | 2.2 | O=C(Nc1ccc(OC(F)(F)F)cc1)c1ccc(N2C[C@@H](O)[C@@H](O)C2)c(-c2cncnc2)c1 [Example 10, 4-(cis-3,4-Dihydroxypyrrolidin-1-yl)-3-(pyrimidin-5-yl)-N-(4-(trifluoromethoxy)phenyl)benzamide] |
| < 3 | 2.3 | CN[C@H]1CCN(c2ncc(C(=O)Nc3ccc(OC(F)(F)F)cc3)cc2-c2cncnc2)C1 [Example 102, (S)-6-(3-(Methylamino)pyrrolidin-1-yl)-5-(pyrimidin-5-yl)-N-(4-(trifluoromethoxy)phenyl)nicotinamide] |
| < 3 | 0.6 | O=C(Nc1ccc(OC(F)(F)F)cc1)c1cnc(N2CC[C@@H](O)C2)c(-c2cccnc2)c1 [Example 39, (R)-2-(3-Hydroxypyrrolidin-1-yl)-N-(4-(trifluoromethoxy)phenyl)-[3,3′-bipyridine]-5-carboxamide] |
| < 0.1 | < 0.13 | N#Cc1cncc(-c2cc(C(=O)Nc3ccc(OC(F)(F)Cl)cc3)cnc2N2C[C@H](O)[C@@H](O)C2)c1 [Example 269] |
| 2 | 0.7 | Cc1ncc(-c2cc(C(=O)Nc3ccc(OC(F)(F)Cl)cc3)cnc2N2C[C@H](O)[C@@H](O)C2)cn1 [Example 262] |
| 6 | 0.8 | CCN(CCO)c1ncc(C(=O)Nc2ccc(OC(F)(F)Cl)cc2)cc1-c1cncc(C#N)c1 [Example 184, N-(4-(Chlorodifluoromethoxy)phenyl)-5′-cyano-2-(ethyl(2-hydroxyethyl)amino)-[3,3′-bipyridine]-5-carboxamide] |
| 6 | 5.3 | CN(C)C1CN(c2ncc(C(=O)Nc3ccc(OC(F)(F)F)cc3)cc2-c2cncnc2)C1 [Example 232] |
| 13 | 2.8 | O=C(Nc1ccc(OC(F)(F)F)cc1)c1ccc(N2C[C@H](O)[C@@H](O)C2)c(-c2cccnc2)c1 [Example 8, 4-((3S,4S)-3,4-Dihydroxypyrrolidin-1-yl)-3-(pyridin-3-yl)-N-(4-(trifluoromethoxy)phenyl)benzamide] |
| < 3 | 2 | O=C(Nc1ccc(OC(F)(F)F)cc1)c1cnc(N2CC(CO)C2)c(-c2cncnc2)c1 [Example 135, 6-(3-(Hydroxymethyl)azetidin-1-yl)-5-(pyrimidin-5-yl)-N-(4-(trifluoromethoxy)phenyl)nicotinamide] |
| < 3 | 1.5 | CC1(O)CN(c2ncc(C(=O)Nc3ccc(OC(F)(F)F)cc3)cc2-c2cncc(F)c2)C1 [Example 132, 5′-Fluoro-2-(3-hydroxy-3-methylazetidin-1-yl)-N-(4-(trifluoromethoxy)phenyl)-[3,3′-bipyridine]-5-carboxamide] |
| < 3 | 1 | CN(CCO)c1ncc(C(=O)Nc2ccc(OC(F)(F)F)cc2)cc1-c1cncc(F)c1 [Example 154, 5′-Fluoro-2-((2-hydroxyethyl)(methyl)amino)-N-(4-(trifluoromethoxy)phenyl)-[3,3′-bipyridine]-5-carboxamide] |
| 1.6 | 4.7 | O=C(Nc1ccc(OC(F)(F)F)cc1)c1cnc(N2CCC(F)(F)C2)c(-c2cncnc2)c1 [Example 224, 6-(3,3-Difluoropyrrolidin-1-yl)-5-(pyrimidin-5-yl)-N-(4-(trifluoromethoxy)phenyl)nicotinamide] |
| 1.8 | 3.9 | O=C(Nc1ccc(OC(F)(F)Cl)cc1)c1cnc(N(CCO)CCO)c(-c2cncnc2)c1 [Example 261] |
| 2 | 0.8 | CN(CCO)c1ncc(C(=O)Nc2ccc(OC(F)(F)Cl)cc2)cc1-c1cncnc1 [Example 179, N-(4-(Chlorodifluoromethoxy)phenyl)-6-((2-hydroxyethyl)(methyl)amino)-5-(pyrimidin-5-yl)nicotinamide] |
| 2 | 0.5 | N[C@@H]1[C@H]2CN(c3ncc(C(=O)Nc4ccc(OC(F)(F)Cl)cc4)cc3-c3cncnc3)C[C@@H]12 [Example 253] |
| < 3 | 1.4 | Cc1ncc(-c2cc(C(=O)Nc3ccc(OC(F)(F)F)cc3)cnc2N2CC(C)(O)C2)cc1F [Example 133, 5′-Fluoro-2-(3-hydroxy-3-methylazetidin-1-yl)-6′-methyl-N-(4-(trifluoromethoxy)phenyl)-[3,3′-bipyridine]-5-carboxamide] |

| IC50 (ABL1 (64-515) [1]) [nM] | IC50 (ABL1 (64-515) [2]) [nM] | Compound |
| --- | --- | --- |
| 3 | 0.9 | Cc1ccc(-c2cc(C(=O)Nc3ccc(OC(F)(F)F)cc3)cnc2N2CC[C@@H](CO)C2)cn1 [Example 77, (R)-2-(3-(hydroxymethyl)pyrrolidin-1-yl)-6′-methyl-N-(4-(trifluoromethoxy)phenyl)-[3,3′-bipyridine]-5-carboxamide] |
| 3 | < 0.13 | Cc1ncncc1-c1cc(C(=O)Nc2ccc(OC(F)(F)Cl)cc2)cnc1N1CC[C@@H](O)C1 [Example 263] |
| < 3 | 0.5 | O=C(Nc1ccc(OC(F)(F)F)cc1)c1cnc(N2CCCC2)c(-c2ccc(CO)nc2)c1 [Example 69, 6′-(Hydroxymethyl)-2-(pyrrolidin-1-yl)-N-(4-(trifluoromethoxy)phenyl)-[3,3′-bipyridine]-5-carboxamide] |
| 16 | 1.8 | CCN(CCO)c1ncc(C(=O)Nc2ccc(SC(F)(F)F)cc2)cc1-c1cncc(C#N)c1 [Example 197, 5′-Cyano-2-(ethyl(2-hydroxyethyl)amino)-N-(4-((trifluoromethyl)thio)phenyl)-[3,3′-bipyridine]-5-carboxamide] |
| 4 | 1.1 | O=C(Nc1ccc(OC(F)(F)Cl)cc1)c1cnc(N2CC[C@@H](O)C2)c(-c2cc(F)cnc2F)c1 [Example 272] |
| < 3 | 0.5 | O=C(Nc1ccc(C(F)(F)C(F)(F)F)cc1)c1cnc(N2CC[C@@H](O)C2)c(-c2cncc(F)c2)c1 [Example 209, (R)-5′-Fluoro-2-(3-hydroxypyrrolidin-1-yl)-N-(4-(perfluoroethyl)phenyl)-[3,3′-bipyridine]-5-carboxamide] |
| 3.4 | 0.7 | O=C(Nc1ccc(OC(F)(F)F)c(F)c1)c1cnc(N2CC[C@H](CO)C2)c(-c2cncc(F)c2)c1 [Example 202, (S)-5′-Fluoro-N-(3-fluoro-4-(trifluoromethoxy)phenyl)-2-(3-(hydroxymethyl)pyrrolidin-1-yl)-[3,3′-bipyridine]-5-carboxamide] |
| 4 | 1.1 | CC(C)(O)C1CN(c2ncc(C(=O)Nc3ccc(OC(F)(F)F)cc3)cc2-c2cccnc2)C1 [Example 143, 2-(3-(2-Hydroxypropan-2-yl)azetidin-1-yl)-N-(4-(trifluoromethoxy)phenyl)-[3,3′-bipyridine]-5-carboxamide] |
| 3 | 1.4 | CN(C)[C@H]1CN(c2ncc(C(=O)Nc3ccc(OC(F)(F)F)cc3)cc2-c2cncc(F)c2)C[C@@H]1O [Example 236, 2-((3S,4S)-3-(Dimethylamino)-4-hydroxypyrrolidin-1-yl)-5′-fluoro-N-(4-(trifluoromethoxy)phenyl)-[3,3′-bipyridine]-5-carboxamide] |
| < 3 | 0.7 | N#Cc1cncc(-c2cc(C(=O)Nc3ccc(OC(F)(F)F)cc3)cnc2N2CC[C@H](CO)C2)c1 [Example 90, (S)-5′-Cyano-2-(3-(hydroxymethyl)pyrrolidin-1-yl)-N-(4-(trifluoromethoxy)phenyl)-[3,3′-bipyridine]-5-carboxamide] |
| 2.4 | 4 | O=C(Nc1ccc(OC(F)(F)F)cc1)c1cnc(N2CCCOCC2)c(-c2cncnc2)c1 [Example 233] |
| < 3 | 2.9 | O=C(Nc1ccc(OC(F)(F)F)cc1)c1cnc(N2CC[C@@H](O)C2)c(-c2ccc(C(F)(F)F)nc2)c1 [Example 51, (R)-2-(3-Hydroxypyrrolidin-1-yl)-N-(4-(trifluoromethoxy)phenyl)-6′-(trifluoromethyl)-[3,3′-bipyridine]-5-carboxamide] |
| 6 | 0.5 | O=C(Nc1ccc(SC(F)(F)F)c(F)c1)c1cnc(N2CC[C@@H](O)C2)c(-c2cncc(F)c2)c1 [Example 206, (R)-5′-Fluoro-N-(3-fluoro-4-((trifluoromethyl)thio)phenyl)-2-(3-hydroxypyrrolidin-1-yl)-[3,3′-bipyridine]-5-carboxamide] |
| 4 | 2.6 | CN(C)C1CN(c2ncc(C(=O)Nc3ccc(OC(F)(F)F)cc3)cc2-c2cncc(F)c2)C1 [Example 239, 2-(3-(Dimethylamino)azetidin-1-yl)-5′-fluoro-N-(4-(trifluoromethoxy)phenyl)-[3,3′-bipyridine]-5-carboxamide] |
| 2.3 | 0.4 | CN(CCO)c1ncc(C(=O)Nc2ccc(SC(F)(F)F)cc2)cc1-c1cncc(F)c1 [Example 193, 5′-Fluoro-2-((2-hydroxyethyl)(methyl)amino)-N-(4-((trifluoromethyl)thio)phenyl)-[3,3′-bipyridine]-5-carboxamide] |
| 1 | 1.1 | O=C(Nc1ccc(OC(F)(F)F)cc1)c1cnc(N2Cc3cn[nH]c3C2)c(-c2cncnc2)c1 [Example 228] |
| 1 | 2.4 | O=C(Nc1ccc(OC(F)(F)F)cc1)c1cnc(N2CCNC3(CC3)C2)c(-c2cncnc2)c1 [Example 229] |
| 2 | 8.5 | CN(C)[C@H]1CN(c2ncc(C(=O)Nc3ccc(OC(F)(F)F)cc3)cc2-c2cncnc2)C[C@@H]1O [Example 225, 6-((3S,4S)-3-(Dimethylamino)-4-hydroxypyrrolidin-1-yl)-5-(pyrimidin-5-yl)-N-(4-(trifluoromethoxy)phenyl)nicotinamide] |
